Converted amounts (≈) assume the structure as drawn. Where two headings read alike, the source gives them in different places. Positions of bridges follow the written chain, without caps; N, C: chain ends. Residues, ends and D or L forms follow the SMILES beside them.
How the values were obtained:
M. luteus B-1314 = format: cell-based, Micrococcus luteus; conditions: B-1314, 24 h
Experimental: (§1) The antimicrobial activity of the peptides was determined using two-fold serial dilutions in sterile 96-well flat-bottom polystyrene microplates (Eppendorf, Hamburg, Germany) (Cat. No. 0030730011), as previously described. The following strains of bacteria were used: E. coli ATCC 25922, E. coli ML35p (ATCC collection), E. coli BW 25113 (Keio collection), Pseudomonas aeruginosa PAO1 (ATCC collection), P. aeruginosa ATCC 27853, Klebsiella pneumoniae ATCC 700603, Staphylococcus aureus 209P (ATCC collection), S. aureus ATCC 29213, and Micrococcus luteus B-1314 (VKM collection). Acinetobacter baumannii (strain XDR CI 2675) was provided by the I.M. Sechenov First Moscow State Medical University hospital. After a 24 h incubation period, the metabolic activity of the bacteria was assessed by adding 20 µL of a redox indicator, resazurin (Sigma-Aldrich, St. Louis, MO, USA), at a concentration of 0.1 mg/mL, to the wells. The plate was then incubated for a further two hours. The minimum inhibitory concentration (MIC) was determined as the lowest concentration of the peptide at which no color change in the resazurin indicator was observed. The results were presented as median values, which were determined based on at least three independent experiments carried out in triplicate.

E. coli ATCC 25922 = format: cell-based; conditions: ATCC 25922, 24 h
Experimental: as §1

[1] = system: freshly isolated human erythrocytes (hRBCs); assay: Hemolysis assay (hemoglobin release); format: cell-based
Text: To assess the hemolytic activity of the compounds, freshly isolated human erythrocytes (hRBCs) were used according to the methodology described in a previous study. Melittin was used as a positive peptide control that induces significant hemolysis. Isotonic phosphate buffer (PBS) served as a negative control, while 0.1% Triton X-100 solution was used as a control for complete hemolysis.

[2] = system: human keratinocyte cell line (HaCaT); assay: Cytotoxicity MTT assay; format: cell-based
Experimental: In order to evaluate the cytotoxicity of the peptides against a human keratinocyte cell line (HaCaT, Cat. No. 300493) (Cell Lines Service, Köln, Germany), the colorimetric 3-(4,5-dimethylthiazol-2-yl)-2,5-diphenyltetrazolium bromide (MTT) dye reduction assay was performed, as described in a previous publication. Wells containing no peptide were used as a 100% survival control. Each peptide was tested in two separate experiments to ensure the reliability of the results.

S. aureus 209P = format: cell-based, Staphylococcus aureus; conditions: 24 h
Experimental: as §1

S. aureus ATCC 29213 = format: cell-based, Staphylococcus aureus; conditions: ATCC 29213, 24 h
Experimental: as §1

[3] = system: K. pneumoniae ATCC 700603; format: cell-based, Klebsiella pneumoniae; conditions: ATCC 700603, 24 h
Experimental: as §1

P. aeruginosa ATCC 27853 = format: cell-based, Pseudomonas aeruginosa; conditions: ATCC 27853, 24 h
Experimental: as §1

P. aeruginosa PAO1 = format: cell-based, Pseudomonas aeruginosa; conditions: PAO1, 24 h
Experimental: as §1

E. coli BW 25113 = format: cell-based; conditions: two-fold serial dilutions, 24 h incubation, resazurin read-out; median of at least three independent experiments in triplicate
Experimental: as §1

all the test strains = format: cell-based; conditions: geometric mean over the 10 test strains
Experimental: as §1

[4] = system: Acinetobacter baumannii (strain XDR CI 2675); format: cell-based
Experimental: as §1

E. coli ML35p = format: cell-based
Experimental: as §1

[5] = strain XDR CI 2675, two-fold serial dilutions, 24 h incubation, resazurin read-out, median of at least three independent experiments in triplicate
[6] = two-fold serial dilutions, 24 h incubation, resazurin read-out, median of at least three independent experiments in triplicate

| SMILES | MIC, M. luteus B-1314 (M. luteus B-1314) [µM] | MIC, E. coli ATCC 25922 (E. coli ATCC 25922) [µM] | Hemolytic activity, % (64 μM) ([1]; red cells of human, 64) | Cell Viability, % (128 μM) ([2]; 18 h, 128) | MIC, S. aureus 209P (S. aureus 209P) [µM] | MIC, S. aureus ATCC 29213 (S. aureus ATCC 29213) [µM] | MIC, K. pneumoniae ATCC 700603 [3] [µM] | MIC, P. aeruginosa ATCC 27853 (P. aeruginosa ATCC 27853) [µM] | MIC, P. aeruginosa PAO1 (P. aeruginosa PAO1) [µM] | Hemolytic activity, % (64 μM) ([1]; 64 μM peptide, 1.5 h incubation, hemoglobin release, fresh hRBCs, 0.1% Triton X-100 = complete hemolysis, mean ± SD of two independent experiments) | Cell Viability, % (128 μM) ([2]; 128 μM peptide, HaCaT, MTT assay, 18 h incubation (legend; text says 24 h), mean ± SD of two independent experiments) | MIC, E. coli BW 25113 (E. coli BW 25113) [µM] | MIC (GM), geometric mean of the peptide's MICs against all the test strains (all the test strains) [µM] | MIC, A. baumannii [4, 5] [µM] | MIC, E. coli ML35p (E. coli ML35p; [6]) [µM] | MIC, A. baumannii ([4]; strain XDR CI 2675, 24 h) [µM] | MIC, E. coli ML35p (E. coli ML35p; ML35p, 24 h) [µM] |
| --- | --- | --- | --- | --- | --- | --- | --- | --- | --- | --- | --- | --- | --- | --- | --- | --- | --- |
| CC(C)C[C@H](NC(=O)CNC(=O)CNC(=O)[C@@H](N)CCCNC(=N)N)C(=O)N[C@H]1CSSC[C@@H](C(=O)N[C@H](C(=O)NCC(=O)N[C@@H](CCCNC(=N)N)C(N)=O)C(C)C)NC(=O)[C@H](C(C)C)NC(=O)[C@@H]2CSSC[C@H](NC(=O)[C@H](Cc3ccc(O)cc3)NC1=O)C(=O)N[C@@H](CCCNC(=N)N)C(=O)NCC(=O)N[C@@H](CCCNC(=N)N)C(=O)N[C@@H](Cc1ccccc1)C(=O)N2 [Iseganan, reference compound] (H-RGGLCYCRGRFCVCVGR-NH2; disulfide 5-14, 7-12) | 0.5 (≈ 0.95 µg/mL) | 0.5 (≈ 0.95 µg/mL) | 99.6 (±0.54) % | 19.5 (±7.18) % | 2 (≈ 3.8 µg/mL) | 4 (≈ 7.6 µg/mL) | 4 (≈ 7.6 µg/mL) | 4 (≈ 7.6 µg/mL) | 8 (≈ 15.2 µg/mL) | – | – | – | – | – | – | – | – |
| CC[C@H](C)[C@H](NC(=O)CN)C(=O)NCC(=O)N[C@@H](C)C(=O)N[C@H](C(=O)N[C@@H](CC(C)C)C(=O)N[C@@H](CCCCN)C(=O)N[C@H](C(=O)N[C@@H](CC(C)C)C(=O)N[C@H](C(=O)N[C@H](C(=O)NCC(=O)N[C@@H](CC(C)C)C(=O)N1CCC[C@H]1C(=O)N[C@@H](C)C(=O)N[C@@H](CC(C)C)C(=O)N[C@H](C(=O)N[C@@H](CO)C(=O)N[C@@H](Cc1c[nH]c2ccccc12)C(=O)N[C@H](C(=O)N[C@@H](CCCCN)C(=O)N[C@@H](CCCNC(=N)N)C(=O)N[C@@H](CCCCN)C(=O)N[C@@H](CCCNC(=N)N)C(=O)N[C@@H](CCC(N)=O)C(=O)N[C@@H](CCC(N)=O)C(N)=O)[C@@H](C)CC)[C@@H](C)CC)[C@@H](C)O)[C@@H](C)O)C(C)C)C(C)C [Melittin, reference compound] | – | – | – | – | – | – | – | – | – | 96.0 (±7.12) % | 4.1 (± 4.07) % | – | – | – | – | – | – |
| CC(C)C[C@H](NC(=O)[C@H](CCCNC(=N)N)NC(=O)CNC(=O)CNC(=O)[C@@H](N)CCCNC(=N)N)C(=O)N[C@H]1CSSC[C@@H](C(=O)N[C@H](C(=O)NCC(=O)N[C@@H](CCCNC(=N)N)C(=O)O)C(C)C)NC(=O)[C@H](C(C)C)NC(=O)[C@@H]2CSSC[C@H](NC(=O)[C@H](Cc3ccc(O)cc3)NC1=O)C(=O)N[C@@H](CCCNC(=N)N)C(=O)N[C@@H](CCCNC(=N)N)C(=O)N[C@@H](CCCNC(=N)N)C(=O)N[C@@H](Cc1ccccc1)C(=O)N2 [PG-1, Protegrin-1] (H-RGGRLCYCRRRFCVCVGR-OH; disulfide 6-15, 8-13; N-terminus and C-terminus assumed) | 0.25 (≈ 0.539 µg/mL) | 0.5 (≈ 1.08 µg/mL) | 96.3 (±10.72) % | 6.1 (±2.07) % | 0.5 (≈ 1.08 µg/mL) | 1 (≈ 2.16 µg/mL) | 1 (≈ 2.16 µg/mL) | 0.25 (≈ 0.539 µg/mL) | 0.5 (≈ 1.08 µg/mL) | – | – | 0.125 (≈ 0.27 µg/mL) | 0.4 | 0.25 (≈ 0.539 µg/mL) | 0.25 (≈ 0.539 µg/mL) | – | – |
| CC(C)[C@H](NC(=O)[C@@H]1CSSC[C@H](NC(=O)[C@H](C)NC(=O)[C@H](CCCNC(=N)N)NC(=O)CNC(=O)CNC(=O)[C@@H](N)CCCNC(=N)N)C(=O)N[C@@H](Cc2ccc(O)cc2)C(=O)N[C@H]2CSSC[C@H](NC(=O)[C@H](Cc3ccccc3)NC(=O)[C@H](CCCNC(=N)N)NC(=O)[C@H](CCCNC(=N)N)NC(=O)[C@H](CCCNC(=N)N)NC2=O)C(=O)N[C@@H](C)C(=O)N1)C(=O)NCC(=O)N[C@@H](CCCNC(=N)N)C(=O)O [[L5A,V14A]] (H-RGGRACYCRRRFCACVGR-OH; disulfide 6-15, 8-13; N-terminus and C-terminus assumed) | 4 (≈ 8.35 µg/mL) | 0.5 (≈ 1.04 µg/mL) | 4.2 (±1.08) % | 38.3 (± 7.19) % | 4 (≈ 8.35 µg/mL) | >32 | 8 (≈ 16.7 µg/mL) | 1 (≈ 2.09 µg/mL) | 1 (≈ 2.09 µg/mL) | – | – | 0.5 (≈ 1.04 µg/mL) | – | – | – | 0.25 (≈ 0.522 µg/mL) | 0.5 (≈ 1.04 µg/mL) |
| CC(C)[C@@H]1NC(=O)[C@@H]2CSSC[C@H](NC(=O)[C@H](Cc3ccc(O)cc3)NC(=O)[C@@H](NC(=O)[C@H](C)NC(=O)[C@H](CCCNC(=N)N)NC(=O)CNC(=O)CNC(=O)[C@@H](N)CCCNC(=N)N)CSSC[C@@H](C(=O)N[C@@H](C)C(=O)NCC(=O)N[C@@H](CCCNC(=N)N)C(=O)O)NC1=O)C(=O)N[C@@H](CCCNC(=N)N)C(=O)N[C@@H](CCCNC(=N)N)C(=O)N[C@@H](CCCNC(=N)N)C(=O)N[C@@H](Cc1ccccc1)C(=O)N2 [[L5A,V16A]] (H-RGGRACYCRRRFCVCAGR-OH; disulfide 6-15, 8-13; N-terminus and C-terminus assumed) | 4 (≈ 8.35 µg/mL) | 0.5 (≈ 1.04 µg/mL) | 3.6 (±1.72) % | 17.0 (± 2.18) % | 4 (≈ 8.35 µg/mL) | >32 | 8 (≈ 16.7 µg/mL) | 1 (≈ 2.09 µg/mL) | 1 (≈ 2.09 µg/mL) | – | – | 0.5 (≈ 1.04 µg/mL) | – | – | – | 0.25 (≈ 0.522 µg/mL) | 0.5 (≈ 1.04 µg/mL) |
| CC(C)C[C@H](NC(=O)[C@H](CCCNC(=N)N)NC(=O)CNC(=O)CNC(=O)[C@@H](N)CCCNC(=N)N)C(=O)N[C@H]1CSSC[C@@H](C(=O)N[C@@H](CCCNC(=N)N)C(=O)NCC(=O)N[C@@H](CCCNC(=N)N)C(=O)O)NC(=O)[C@H](C(C)C)NC(=O)[C@@H]2CSSC[C@H](NC(=O)[C@H]([C@@H](C)O)NC1=O)C(=O)N[C@@H](CCCNC(=N)N)C(=O)N[C@@H](CCCNC(=N)N)C(=O)N[C@@H](CCCNC(=N)N)C(=O)N[C@@H](Cc1ccccc1)C(=O)N2 [[Y7T,V16R]] (H-RGGRLCTCRRRFCVCRGR-OH; disulfide 6-15, 8-13; N-terminus and C-terminus assumed) | 4 (≈ 8.61 µg/mL) | 8 (≈ 17.2 µg/mL) | 1.4 (±0.66) % | 72.8 (± 5.46) % | >32 | >32 | >32 | >32 | >32 | – | – | 8 (≈ 17.2 µg/mL) | – | – | – | 4 (≈ 8.61 µg/mL) | 4 (≈ 8.61 µg/mL) |
| CC(C)C[C@H](NC(=O)[C@H](CCCNC(=N)N)NC(=O)CNC(=O)CNC(=O)[C@@H](N)CCCNC(=N)N)C(=O)N[C@H]1CSSC[C@@H](C(=O)N[C@H](C(=O)NCC(=O)N[C@@H](CCCNC(=N)N)C(=O)O)C(C)C)NC(=O)[C@H](C(C)C)NC(=O)[C@@H]2CSSC[C@H](NC(=O)[C@H]([C@@H](C)O)NC1=O)C(=O)N[C@@H](CCCNC(=N)N)C(=O)N[C@@H](CCCNC(=N)N)C(=O)N[C@@H](CCCNC(=N)N)C(=O)N[C@@H](Cc1ccccc1)C(=O)N2 [[Y7T]] (H-RGGRLCTCRRRFCVCVGR-OH; disulfide 6-15, 8-13; N-terminus and C-terminus assumed) | 4 (≈ 8.38 µg/mL) | 1 (≈ 2.09 µg/mL) | 4.0 (±2.54) % | 15.0 (± 1.62) % | 16 (≈ 33.5 µg/mL) | 16 (≈ 33.5 µg/mL) | 8 (≈ 16.8 µg/mL) | 2 (≈ 4.19 µg/mL) | 2 (≈ 4.19 µg/mL) | – | – | 0.5 (≈ 1.05 µg/mL) | – | 0.5 (≈ 1.05 µg/mL) | 0.5 (≈ 1.05 µg/mL) | – | – |

— paper PMC10458893, “Design of Protegrin-1 Analogs with Improved Antibacterial Selectivity” (Pharmaceutics, 2023)
